Calls of active or inactive are those of the source. No cut-off for these calls is given here.
What was measured:
[1] = Cytotoxicity against human SH-SY5Y cells assessed as cell viability at 3.1 uM measured after 2 hrs by MTT assay relative to control; format: cell-based; conditions: read-out: Activity
[2] = Cytotoxicity against human SH-SY5Y cells assessed as cell viability at 0.8 uM measured after 24 hrs by MTT assay relative to control; format: cell-based; conditions: read-out: Activity
[3] = Cytotoxicity against human SH-SY5Y cells assessed as cell viability at 0.8 uM measured after 2 hrs by MTT assay relative to control; format: cell-based; conditions: read-out: Activity
[4] = Retention time in Sprague-Dawley rat plasma by HPLC based fluorimetric analysis; format: ADME, cell-free
[5] = Antioxidant activity assessed as DPPH radical scavenging activity incubated for 60 mins in absence of light; format: functional
[6] = Cytotoxicity against human SH-SY5Y cells assessed as cell viability at 50 uM measured after 2 hrs by MTT assay relative to control; format: cell-based; conditions: read-out: Activity
[7] = Cytotoxicity against human SH-SY5Y cells assessed as cell viability at 6.3 uM measured after 24 hrs by MTT assay relative to control; format: cell-based; conditions: read-out: Activity
[8] = Cytotoxicity against human SH-SY5Y cells assessed as cell viability at 1.6 uM measured after 24 hrs by MTT assay relative to control; format: cell-based; conditions: read-out: Activity
[9] = Cytotoxicity against human SH-SY5Y cells assessed as cell viability at 100 uM measured after 24 hrs by MTT assay relative to control; format: cell-based; conditions: read-out: Activity
[10] = Cytotoxicity against human SH-SY5Y cells assessed as cell viability at 25 uM measured after 24 hrs by MTT assay relative to control; format: cell-based; conditions: read-out: Activity
[11] = Drug concentration in Sprague-Dawley rat brain at 0.2 mmol/Kg, ip measured after 1 hr by HPLC based fluorimetric analysis; format: ADME, organism-based; conditions: in vivo
[12] = Cytotoxicity against human SH-SY5Y cells assessed as cell viability at 50 uM measured after 24 hrs by MTT assay relative to control; format: cell-based; conditions: read-out: Activity
[13] = Cytotoxicity against human SH-SY5Y cells assessed as cell viability at 3.1 uM measured after 24 hrs by MTT assay relative to control; format: cell-based; conditions: read-out: Activity
[14] = Cytotoxicity against human SH-SY5Y cells assessed as cell viability at 1.6 uM measured after 2 hrs by MTT assay relative to control; format: cell-based; conditions: read-out: Activity
[15] = Cytotoxicity against human SH-SY5Y cells assessed as cell viability at 6.3 uM measured after 2 hrs by MTT assay relative to control; format: cell-based; conditions: read-out: Activity
[16] = Drug concentration in Sprague-Dawley rat plasma at 0.2 mmol/Kg, ip measured after 1 hr by HPLC based fluorimetric analysis; format: ADME, organism-based
[17] = Retention time in Sprague-Dawley rat brain by HPLC based fluorimetric analysis; format: ADME, tissue-based
[18] = Cytotoxicity against human SH-SY5Y cells assessed as cell viability at 25 uM measured after 2 hrs by MTT assay relative to control; format: cell-based; conditions: read-out: Activity
[19] = tested on: SH-SY5Y; assay: Antioxidant activity in human SH-SY5Y cells assessed as inhibition of H2O2-induced DCFH oxidation measured after 1 hr by DCFH-DA dye based fluorescence assay; format: functional, cell-based
[20] = Cytotoxicity against human SH-SY5Y cells assessed as cell viability at 12.5 uM measured after 2 hrs by MTT assay relative to control; format: cell-based; conditions: read-out: Activity
[21] = Cytotoxicity against human SH-SY5Y cells assessed as cell viability at 100 uM measured after 2 hrs by MTT assay relative to control; format: cell-based; conditions: read-out: Activity
[22] = Cytotoxicity against human SH-SY5Y cells assessed as cell viability at 12.5 uM measured after 24 hrs by MTT assay relative to control; format: cell-based; conditions: read-out: Activity
[23] = Permeability of the compound at pH 7.4 by PAMPA-BBB assay; format: ADME; conditions: read-out: permeability
[24] = tested on: SH-SY5Y; assay: Cytoprotective activity against DMSO-induced toxicity in human SH-SY5Y cells; format: functional, cell-based

SMILES | viability at 2 h, 3.1 µM [1] [%] | viability at 24 h, 0.8 µM [2] [%] | viability at 2 h, 0.8 µM [3] [%] | IC50 [5] [µM] | viability at 2 h, 50 µM [6] [%] | viability at 24 h, 6.3 µM [7] [%] | viability at 24 h, 1.6 µM [8] [%] | viability at 24 h, 100 µM [9] [%] | viability at 24 h, 25 µM [10] [%] | Ct [11] [nmol/g] | viability at 24 h, 50 µM [12] [%] | viability at 24 h, 3.1 µM [13] [%] | viability at 2 h, 1.6 µM [14] [%] | viability at 2 h, 6.3 µM [15] [%] | concentration at 1 h [16] [nM] | viability at 2 h, 25 µM [18] [%] | Activity [19] | IC50 [19] [µM] | viability at 2 h, 12.5 µM [20] [%] | viability at 2 h, 100 µM [21] [%] | other results
COc1cc2c(cc1O)CCC(C)(C)O2 | 85.6 | 91.1 | 98.5 | 14.1 | 86.8 | 98 | 93.9 | 96.1 | 93.2 | 4 | 95.2 | 99.4 | 94.1 | 92.2 | 2400 | 90.6 | Dose-dependent effect | 21.7 | 91.5 | 66.9 | Retention_time [4]: 8 min; Retention_time [17]: 8 min; viability at 24 h, 12.5 µM [22]: 100%; Papp [23]: 0.25 ×10⁻⁶ cm/s
COc1cc2c(cc1O)CCC(C)(CC(N)C(=O)O)O2 (configuration not stated) | 100 | 82.7 | 100 | 14.1 | 100 | 100 | 100 | 60.1 | 88.5 | 15.8 | 85.7 | 100 | 100 | 100 | 52300 | 100 | Dose-dependent effect | > 200 | 100 | 87.8 | Activity [24]: Active; Retention_time [17]: 7 min; viability at 24 h, 12.5 µM [22]: 100%; Papp [23]: 0.04 ×10⁻⁶ cm/s
COc1cc2c(cc1O)CCC(C)(CCNC(=O)C[C@H]1OC(O)[C@H](O)[C@@H](O)[C@@H]1O)O2 (some centres not stated) | 93.3 | 96.1 | 88.9 | 13.1 | 99.6 | 87.2 | 96.7 | 56.6 | 87.9 | 3.1 | 86.6 | 88.1 | 95.3 | 100 | 26000 | 100 | Dose-dependent effect | 35.6 | 100 | 77.6 | Activity [24]: Active; Retention_time [17]: 2 min; viability at 24 h, 12.5 µM [22]: 90.6%
COc1cc2c(cc1O)CCC(C)(CCNC(C)=O)O2 (configuration not stated) | 82.3 | 89 | 91.3 | 14.3 | 81.2 | 87.8 | 78.7 | 57.9 | 76.2 | 2.3 | 66.5 | 90.7 | 100 | 79.4 | 3000 | 89.2 | Dose-dependent effect | 50.3 | 84.8 | 66.6 | Retention_time [17]: 4 min; viability at 24 h, 12.5 µM [22]: 83.5%; Papp [23]: 0.52 ×10⁻⁶ cm/s
COc1cc2c(cc1O)CCC(C)(CC(=O)N[C@@H](Cc1ccccc1)C(=O)O)O2 (some centres not stated) | 100 | 100 | 99 | 14.9 | 100 | 87.5 | 100 | 59.1 | 81.1 | 0 | 89.5 | 93 | 100 | 100 | 900 | 100 | Dose-dependent effect | 44.5 | 100 | 72.2 | Activity [24]: Active; viability at 24 h, 12.5 µM [22]: 82.3%; Papp [23]: 0.49 ×10⁻⁶ cm/s

— ChEMBL document CHEMBL4715750, “Synthesis and in vitro, ex-vivo and in vivo activity of hybrid compounds linking a potent ROS and RNS scavenger activity with diverse substrates addressed to pass across the blood-brain barrier” (Eur J Med Chem, 2016)
